Target: T1, STK4 (MST1) (Homo sapiens, UniProt Q13043)
T1 construct: purchased Thermo Fisher Scientific (Life Technologies) SelectScreen
Experiment: SelectScreen Z'LYTE
Type: biochemical
Procedure, shortened: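 Percent values come from Thermo SelectScreen profiling of NU5455, combining activity and binding assays. CSF1R was run in Z'LYTE format at Km app ATP, and CAMK1 in Adapta format with ATP listed at 10.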

T1 sequence (Q13043 whole entry): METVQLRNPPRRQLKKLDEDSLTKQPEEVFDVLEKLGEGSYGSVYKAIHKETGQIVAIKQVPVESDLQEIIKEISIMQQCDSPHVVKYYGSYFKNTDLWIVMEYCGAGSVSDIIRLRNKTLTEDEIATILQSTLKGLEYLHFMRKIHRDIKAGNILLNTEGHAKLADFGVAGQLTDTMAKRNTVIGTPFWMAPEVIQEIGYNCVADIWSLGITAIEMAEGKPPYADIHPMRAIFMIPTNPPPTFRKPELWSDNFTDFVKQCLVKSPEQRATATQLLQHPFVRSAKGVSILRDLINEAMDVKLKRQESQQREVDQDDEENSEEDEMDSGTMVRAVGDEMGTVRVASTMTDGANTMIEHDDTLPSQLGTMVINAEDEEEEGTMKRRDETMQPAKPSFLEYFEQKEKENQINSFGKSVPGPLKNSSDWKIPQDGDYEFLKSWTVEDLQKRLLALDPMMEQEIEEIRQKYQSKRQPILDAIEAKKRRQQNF

Q: Which inhibition at 1 µM does the source give for CN(C(=O)CN1CCOCC1)c1ccc2sc3c(-c4cccc5c(=O)cc(N6CC7CCC(C6)O7)oc45)cccc3c2c1 [NU5455] here?
A: -4.4%
